IC50 data for one compound are collected here from article PMC5776727 (Bioorganic & medicinal chemistry letters, 2015).

For this experiment, the target named is CXCR4 (Homo sapiens, UniProt P61073). Kind of experiment: inhibition of CXCL12. The class given is cell-based. To be noted: read-out: SDF-1 Ca2+ Flux CEM-1 IC50; SDF-1 induced calcium release; duplicate.
CXCR4, sequence (P61073 whole entry): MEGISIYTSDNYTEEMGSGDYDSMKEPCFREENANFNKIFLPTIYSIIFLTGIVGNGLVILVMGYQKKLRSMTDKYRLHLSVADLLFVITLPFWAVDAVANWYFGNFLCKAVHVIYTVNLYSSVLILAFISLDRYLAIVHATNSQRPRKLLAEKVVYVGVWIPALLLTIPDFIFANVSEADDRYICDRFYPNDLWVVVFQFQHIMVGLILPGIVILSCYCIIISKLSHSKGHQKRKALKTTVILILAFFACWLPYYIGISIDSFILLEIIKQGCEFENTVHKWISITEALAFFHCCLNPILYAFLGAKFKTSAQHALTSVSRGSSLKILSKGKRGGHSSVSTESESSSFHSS

In the case of `NCCCCN(C[C@H]1CN(C(=O)Nc2ccccc2)CCN1)[C@H]1CCCc2cccnc21` [Compound 57a], the IC50 turned out to be 21 µM.
